Assay [1] deals with Klebsiella pneumoniae strain ATCC13883. In words: Antimicrobial activity, MIC by broth microdilution. The class given is cell-based. The following applies: ATCC13883, cation-adjusted Mueller-Hinton broth, about 5×10^5 CFU/mL, 35° C., about 18 hours, read-out: MIC Klebsiella pneumoniae ATCC13883. The procedure, abridged: (§1)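 CLSI-based broth microdilution in cation-adjusted Mueller-Hinton broth, inoculum about 5×10^5 CFU/mL from overnight heart infusion agar culture. Incubation 35° C. about 18 h; MIC is the lowest concentration with no visible growth.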
On the technique in general: Broth dilution looks for growth in wells or tubes with falling amounts of substance.

Assay [2] has as its system Pseudomonas aeruginosa strain ATCC27853. Description: Antimicrobial activity, MIC by broth microdilution. The following applies: ATCC27853, 18 h, cation-adjusted Mueller-Hinton broth, about 5×10^5 CFU/mL, 35° C., about 18 hours, read-out: MIC Pseudomonas aeruginosa ATCC27853. Type of assay: cell-based. The procedure, abridged: as §1
In assay [3] the target is T1, Escherichia coli LpxC enzyme (Escherichia coli, UniProt P0A725).
T1 construct: made in house; host or cells: Escherichia coli
T1 sequence (P0A725 1-305): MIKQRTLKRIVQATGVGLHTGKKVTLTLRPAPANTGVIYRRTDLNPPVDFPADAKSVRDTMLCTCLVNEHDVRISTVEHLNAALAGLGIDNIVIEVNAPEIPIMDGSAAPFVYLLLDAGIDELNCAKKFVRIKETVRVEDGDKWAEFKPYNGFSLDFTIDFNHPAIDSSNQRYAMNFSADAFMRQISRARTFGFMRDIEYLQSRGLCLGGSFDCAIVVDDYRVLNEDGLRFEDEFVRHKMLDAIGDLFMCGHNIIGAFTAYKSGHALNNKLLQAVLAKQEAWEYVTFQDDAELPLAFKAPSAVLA
In words: Inhibitory activity on Escherichia coli LpxC enzyme (fluorescamine method). Type of assay: biochemical. The procedure, abridged: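 LpxC reacted with UDP-3-O-(R-3-hydroxymyristoyl)-N-acetylglucosamine; product amine quantified after fluorescamine stop and pH 8.0 phosphate buffer addition, at 390 nm/495 nm. Inhibition curve built from a range of test compound concentrations.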

The target of assay [4] is T2, Pseudomonas aeruginosa LpxC enzyme (Pseudomonas aeruginosa, UniProt P47205).
T2 construct: made in house; host or cells: Escherichia coli
T2 sequence (P47205 1-303): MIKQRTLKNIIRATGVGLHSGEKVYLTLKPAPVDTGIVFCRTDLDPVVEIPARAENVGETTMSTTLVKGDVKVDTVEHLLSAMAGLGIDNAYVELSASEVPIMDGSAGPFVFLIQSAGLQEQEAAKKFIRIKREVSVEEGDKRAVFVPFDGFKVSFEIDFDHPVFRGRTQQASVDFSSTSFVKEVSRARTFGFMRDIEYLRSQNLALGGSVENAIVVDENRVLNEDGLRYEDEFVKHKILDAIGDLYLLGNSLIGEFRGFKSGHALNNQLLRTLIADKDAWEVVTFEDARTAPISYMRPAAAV
Description: Inhibitory activity on Pseudomonas aeruginosa LpxC enzyme (fluorescamine method). The class given is biochemical. The following applies: fluorescamine detection; 3.6 nmol/L enzyme, 20 μmol/L substrate, pH 8.0, 60 min. An excerpt: Test Example 1 Evaluation of the Inhibitory Activity on Pseudomonas aeruginosa LpxC Enzyme (Fluoresamine Method)
To assay the activity of Pseudomonas aeruginosa LpxC enzyme, LpxC was reacted with its substrate, UDP-3-O-(R-3-hydroxydecanoyl)-N-acetylglucosamine, and the amount of the reaction product was quantified by the amino groups present in the product.
Specifically, to 3.6 nmol/L Pseudomonas aeruginosa LpxC enzyme (as acquired by preparing chromosomal DNA from Pseudomonas aeruginosa, obtaining the Pseudomonas aeruginosa LpxC genes by PCR (polymerase chain reaction) using LpxC specific primer, and incorporating the genes into a vector, followed by expression using Escherichia coli), 20 μmol/L UDP-3-O-(R-3-hydroxydecanoyl)-N-acetylglucosamine (Carbosynth) was added, and the mixture was incubated at room temperature for 60 minutes. This reaction was performed in a 40 mmol/L-HEPES buffer solution (pH 8.0) containing 0.02% Brij 35 and 25 nmol/L-zinc chloride. The reaction was terminated by the addition of 1.0 mg/mL-fluorescamine dissolved in a solvent obtained by mixing an equal amount of acetonitrile and dimethylformamide with the reaction mixture, and then, a 0.2 mol/L-sodium phosphate buffer solution (pH 8.0) was added thereto, and the amount of the reaction product was detected at an excitation wavelength/fluorescence wavelength=390 nm/495 nm. An inhibition curve was obtained by performing the aforementioned reaction in the presence of various concentrations of test compounds. From this inhibition curve, the concentration of test compound at which the amount of the reaction product was suppressed by 50% (IC50 value) was determined, which was used as an index for the inhibitory activity on Pseudomonas aeruginosa LpxC enzyme.

Assay [5] relates to Escherichia coli strain ATCC25922. Description: Antimicrobial activity, MIC by broth microdilution. Type of assay: cell-based. Particulars: ATCC25922, 18 h, cation-adjusted Mueller-Hinton broth, about 5×10^5 CFU/mL, 35° C., about 18 hours, read-out: MIC Escherichia coli ATCC25922. In a few lines:
as §1

Setting [6] is: fluorescamine detection, 3.1 nmol/L enzyme, 20 μmol/L substrate, pH 6.5, 120 min, read-out: IC50 (inhibitory activity on Escherichia coli LpxC enzyme, Fluoresamine method).

Structures are written as SMILES. ≈ marks a conversion by molar mass, not a printed value. Where two headings read alike, the source gives them in different places. Bounds are passed on as bounds.

For `C[C@H](O)c1nccn1Cc1cc(-c2ccc(C#CC3CN(C[C@H](O)CO)C3)cc2)on1` [Compound 13], the MIC in assay [1] was 16 µg/mL (≈ 37.9 µM); in assay [2], 32 µg/mL (≈ 75.7 µM). Besides, the IC50 in assay [3] (setting [6]) came out at 651 nM; in assay [4], 21.9 nM.
Turning to `C[C@H](O)c1nccn1Cc1cc(-c2ccc(C#C[C@H]3C[C@@H]3[C@@H](O)CN)cc2)on1` [Compound 15, (R)-2-Amino-1-((1 S,2S)-2-((4-(3-((2-((S)-1-hydroxyethyl)-1H-imidazol-1-yl)methyl)isoxazol-5-yl)phenyl)ethynyl)cyclopropyl)ethanol], the values for the minimal inhibitory concentration (MIC) in assay [1] and in assay [2] were 64 µg/mL (≈ 163 µM) and 16 µg/mL (≈ 40.8 µM), respectively. Also, half-maximal inhibition in assay [4] (IC50) required 8.4 nM.
Consider `C[C@H](O)c1nccn1Cc1cc(-c2ccc(C#CC3CC3CO)cc2)on1` (stereo in doubt) [Compound 7, (1S)-1-(1-{[5-(4-{[trans-2-(hydroxymethyl)cyclopropyl]ethynyl}phenyl)-1,2-oxazol-3-yl]methyl}-1H-imidazol-2-yl)ethan-1-ol], for which the minimal inhibitory concentration (MIC) in assay [1] was determined as 0.5 µg/mL (≈ 1.38 µM); in assay [5], 0.25 µg/mL (≈ 0.688 µM); in assay [2], 16 µg/mL (≈ 44 µM). Further, the IC50 is 15.4 nM in assay [3] (setting [6]) and 4.44 nM in assay [4].
For `Cc1cc(C#CCCCO)ccc1-c1cc(Cn2ccnc2[C@H](C)O)no1` [Compound 5, 5-{4-[3-({2-[(1S)-1-hydroxyethyl]-1H-imidazol-1-yl}methyl)-1,2-oxazol-5-yl]-3-methylphenyl} pent-4-yn-1-ol], the MIC in assay [1] was 16 µg/mL (≈ 43.8 µM); in assay [2] it was above 64 µg/mL. This compound also returned an IC50 in assay [4] of 132 nM.
For `C[C@H](O)c1nccn1Cc1cc(-c2ccc(C#CC3CN(C)C3)cc2)on1` [Compound 12, (1S)-1-{1-[(5-{4-[(1-Methylazetidin-3-yl)ethynyl]phenyl}-1,2-oxazol-3-yl)methyl]-1H-imidazol-2-yl}ethan-1-ol] the same measures were 16 µg/mL (≈ 44.1 µM), 32 µg/mL (≈ 88.3 µM) and 46 nM.
The matching figures for `C[C@H](O)c1nccn1[C@H](CO)c1cc(-c2ccc(C#CCCCO)cc2)on1` [Compound 16, 5-(4-{3-[(1S)-2-Hydroxy-1-{2-[(1S)-1-hydroxyethyl]-1H-imidazol-1-yl}ethyl]-1,2-oxazol-5-yl}phenyl)pent-4-yn-1-ol]: 4 µg/mL (≈ 10.5 µM), 16 µg/mL (≈ 41.9 µM) and 2.6 nM.
`C[C@H](O)c1nccn1Cc1cc(-c2ccc(C#CCCCO)cc2F)on1` [Compound 3, 5-{3-fluoro-4-[3-({2-[(1S)-1-hydroxyethyl]-1H-imidazol-1-yl}methyl)-1,2-oxazol-5-yl]phenyl}pent-4-yn-1-ol]: the MIC in assay [1] worked out at 1 µg/mL (≈ 2.71 µM); in assay [5], 0.5 µg/mL (≈ 1.35 µM); in assay [2], 32 µg/mL (≈ 86.6 µM). Besides, the IC50 stood at 16.1 nM in assay [3] (setting [6]) and 4.36 nM in assay [4].
Consider `C[C@H](O)c1nccn1Cc1cc(-c2ccc(C#CCCO)cc2)on1` [Compound 6, 4-{4-[3-({2-[(1S)-1-hydroxyethyl]-1H-imidazol-1-yl}methyl)-1,2-oxazol-5-yl]phenyl}but-3-yn-1-ol], for which the MIC is 4 µg/mL (≈ 11.9 µM) in assay [1] and 64 µg/mL (≈ 190 µM) in assay [2]. This compound also came in with an IC50 in assay [4] of 22.6 nM.
With `C[C@H](O)c1nccn1Cc1cc(-c2ccc(C#CCCCO)c(F)c2)on1` [Compound 2, 5-{2-fluoro-4-[3-({2-[(1S)-1-hydroxyethyl]-1H-imidazol-1-yl}methyl)-1,2-oxazol-5-yl]phenyl} pent-4-yn-1-ol], the MIC in assay [1] amounted to 2 µg/mL (≈ 5.41 µM); in assay [5], 1 µg/mL (≈ 2.71 µM); in assay [2], 64 µg/mL (≈ 173 µM). Moreover, the IC50 in assay [3] (setting [6]) was 16.9 nM; in assay [4] it was 6.92 nM.
With `C[C@H](O)c1nccn1Cc1cc(-c2ccc(C#CC3CC3N)cc2)on1` (stereo in doubt) [Compound 9, (1S)-1-{1-[(5-(4-[(trans-2-aminocyclopropyl)ethynyl]phenyl}-1,2-oxazol-3-yl)methyl]-1H-imidazol-2-yl}ethan-1-ol], the minimum inhibitory concentration (MIC) in assay [1] amounted to 4 µg/mL (≈ 11.5 µM); in assay [2], 16 µg/mL (≈ 45.9 µM). In addition, the values for the IC50 in assay [3] (setting [6]) and in assay [4] were 183 nM and 22.3 nM, respectively.
As for `C[C@H](O)c1nccn1Cc1cc(-c2ccc(C#CC3(N)CC3)cc2)on1` [Compound 4, (1S)-1-{1-[(5-{4-[(1-Aminocyclopropyl)ethynyl]phenyl}-1,2-oxazol-3-yl)methyl]-1H-imidazol-2-yl}ethan-1-ol], the minimal inhibitory concentration (MIC) in assay [1] was 1 µg/mL (≈ 2.87 µM); in assay [5], 0.5 µg/mL (≈ 1.44 µM); in assay [2], 64 µg/mL (≈ 184 µM). Further, the IC50 in assay [4] was found to be 16.7 nM.
Regarding `C[C@H](O)c1nccn1Cc1cc(-c2ccc(C#C[C@@H]3[C@H]4CNC[C@@H]34)cc2)on1` [Compound 10, (1S)-1-(1-{[5-(4-{[(1R,5S,6s)-3-Azabicyclo[3.1.0]hexan-6-yl]ethynyl}phenyl)-1,2-oxazol-3-yl]methyl}-1H-imidazol-2-yl)ethan-1-ol], in assay [2], the MIC was 8 µg/mL (≈ 21.4 µM). In addition, the figures for the 50% inhibitory concentration (IC50) in assay [3] (setting [6]) and in assay [4] were 123 nM and 14.3 nM, respectively.
`C[C@H](O)c1nccn1Cc1cc(-c2ccc(C#C[C@@H]3[C@H]4CN(C[C@H](O)CO)C[C@@H]34)cc2)on1` [Compound 11, (2S)-3-[(1R,5S,6R)-6-({4-[3-({2-[(1S)-1-Hydroxyethyl]-1H-imidazol-1-yl}methyl)-1,2-oxazol-5-yl]phenyl}ethynyl)-3-azabicyclo[3.1.0]hexan-3-yl]propan-1,2-diol]: the values for the minimum inhibitory concentration (MIC) in assay [1], in assay [5] and in assay [2] were 2 µg/mL (≈ 4.46 µM), 1 µg/mL (≈ 2.23 µM) and 8 µg/mL (≈ 17.8 µM), respectively. Besides, the IC50 in assay [3] (setting [6]) was 102 nM; in assay [4], 3.78 nM.
`C[C@H](O)c1nccn1Cc1cc(-c2c(F)cc(C#CCCCO)cc2F)on1` [Compound 14, 5-{3,5-Difluoro-4-[3-({2-[(1S)-1-hydroxyethyl]-1H-imidazol-1-yl}methyl)-1,2-oxazol-5-yl]phenyl}pent-4-yn-1-ol]: the MIC in assay [1] turned out to be 8 µg/mL (≈ 20.7 µM); in assay [2] it was 64 µg/mL (≈ 165 µM). For the same compound, half-maximal inhibition in assay [4] (IC50) was put at 15.4 nM.
In the case of `C[C@H](O)c1nccn1Cc1cc(-c2ccc(C#C[C@@H]3[C@H]4CN(CCO)C[C@@H]34)cc2)on1` [Compound 19, (1S)-1-(1-{[5-(4-{[(1R,5S,6s)-3-(2-Hydroxyethyl)-3-azabicyclo[3.1.0]hexan-6-yl]ethynyl}phenyl)-1,2-oxazol-3-yl]methyl}-1H-imidazol-2-yl)ethan-1-ol], the results for the minimal inhibitory concentration (MIC) in assay [1], in assay [5] and in assay [2] were 1 µg/mL (≈ 2.39 µM), 0.5 µg/mL (≈ 1.19 µM) and 8 µg/mL (≈ 19.1 µM), respectively. Besides, the IC50 in assay [3] (setting [6]) turned out to be 123 nM; in assay [4], 2.03 nM.
With `C[C@H](O)c1nccn1Cc1cc(-c2ccc(C#C[C@@H]3[C@H]4CN(C5COC5)C[C@@H]34)cc2)on1` [Compound 59, (1S)-1-(1-{[5-(4-{[(1R,5S,6s)-3-(Oxetan-3-yl)-3-azabicyclo[3.1.0]hexan-6-yl]ethynyl}phenyl)-1,2-oxazol-3-yl]methyl}-1H-imidazol-2-yl)ethan-1-ol], the MIC in assay [1] was 0.5 µg/mL (≈ 1.16 µM); in assay [5] it was 0.5 µg/mL (≈ 1.16 µM); in assay [2] it was above 16 µg/mL. Moreover, in assay [3], the IC50 worked out at 35.5 nM.

The term MIC denotes the least concentration at which growth counts as inhibited. In general, IC50 refers to the concentration that inhibits the measured activity by half.

Values taken from patent publication US20220002279A1, “NOVEL IMIDAZOLE DERIVATIVE” (priority 2018, published 2022).
